According to patent US4640916A, “1,4-benzothiazine derivatives, compositions containing them and method of use” (priority 1984, dated 1987):
Read-outs that look alike come from different tables or passages of the source.

How the values were obtained:
[1] = system: contraction of the aorta strip caused by norepinephrine (NE); assay: Vasodilating action: inhibition of contraction of rabbit aorta strip caused by norepinephrine (NE); assay type: cell-based; details: Oryctolagus cuniculus, compound 10^-5 M, NE 10^-6 M, 15 min pretreatment, read-out: Inhibitory percent against contraction, NE
Method: (§1) A spiral strip of aorta of a rabbit (2-3 mm width, about 3 cm length) was allowed to equilibrate by hanging under 2 g force in a Krebs-Henseleit solution. The solution was saturated with a mixture gas of 97% O2 --3% CO2 which was warmed to 37° C. Inhibitory actions of compounds (10^-5 M) of this invention against contraction of the aorta strip caused by KCl (60 mM), norepinephrine (NE) (10^-6 M) or serotonin (5--HT) (10^-6 M), by treating the strip with a compound of this invention 15 minutes before the test, are shown in Table 1 as inhibitory percent.

[2] = system: contraction of the aorta strip caused by serotonin (5--HT); assay: Vasodilating action: inhibition of contraction of rabbit aorta strip caused by serotonin (5-HT); assay type: cell-based; details: Oryctolagus cuniculus, compound 10^-5 M, 5-HT 10^-6 M, 15 min pretreatment, read-out: Inhibitory percent against contraction, 5-HT
Method: as §1

[3] = system: spontaneously hypertensive rats; assay: Antihypertensive action in spontaneously hypertensive rats (tail-cuff); assay type: in vivo; details: 1 h after administration
Method: Male 12 to 13 weeks old spontaneously hypertensive rats with about 200 mm Hg of blood pressure were used in groups of 3 individuals. Mean arterial blood pressures of these animals were measured by the tail-cuff method, then the animals were orally given 3-60 mg/kg of each test compound of this invention as 2 ml of its suspension in gum arabic. Blood pressure measurements were made again one hour after administration of each test compound.

[4] = system: contraction of the aorta strip caused by KCl; assay: Vasodilating action: inhibition of contraction of rabbit aorta strip caused by KCl; assay type: cell-based; details: Oryctolagus cuniculus, compound 10^-5 M, KCl 60 mM, 15 min pretreatment, read-out: Inhibitory percent against contraction, KCl
Method: as §1

[5] = system: ischemic seizure induced by bilateral carotid artery occlusion; assay: Effect on the ischemic seizure induced by bilateral carotid artery occlusion in spontaneously hypertensive rats; assay type: in vivo; details: p.o.; for Time toward ischemic seizure: 1 h before occlusion
Method: Male spontaneously hypertensive rats, 20 to 22 week old, were orally given the compounds or tap water at a volume of 5 ml/kg. After 1 hour, the carotid artery was bilaterally occluded by use of silk thread under anesthesia with sodium pentobarbital (50 mg/kg, i.p.). The length of time until the ischemic seizure such as convulsion and jumping was observed was measured, immediately after the occlusion of carotid artery.

[6] = system: ischemic acute renal failure in rats; assay: Effect on the ischemic acute renal failure in rats; assay type: in vivo, Sprague-Dawley rats; details: for Plasma urea nitrogen (BUN): p.o., 24 h after reperfusion
Method: The left renal artery of male Sprague-Dawley rats, 6 week old, was clamped for 1 hour under anesthesia with sodium pentobarbital (50 mg/kg, i.p.). The compounds or water was orally given 1 hour before the occlusion. The compounds were again given 20 hour after the reperfusion of the blood. Twenty four hour after the reperfusion, the blood was obtained from the abdominal aorta under anesthesia for measurement of plasma urea nitrogen (BUN).

[7] = system: ischemia-reperfusion-induced ventricular arrythmia in rats; assay: Effect on the ischemia-reperfusion-induced ventricular arrhythmia in rats; assay type: in vivo, Sprague-Dawley rats; details: p.o.; for Incidence of cardiac arrest (CA), rats affected/rats used / Incidence of ventricular fibrillation (VF), rats affected/rats used / Incidence of ventricular tachycardia (VT), rats affected/rats used: 10 min after reperfusion
Method: Male Sprague-Dawley rats, 9 to 10 week old, were orally given the compounds or tap water at a volume of 5 ml/kg. After 1 hour, rats were anesthetized with sodium pentobarbital (50 mg/kg, i.p.), and left anterior descending coronary artery was occluded for 5 min. with a silk thread under ventilation. The incidences of ventricular tachycardia (VT), ventricular fibrilation (VF) and cardiac arrest (CA) occurred for 10 min. after reperfusion of the blood were calculated.

[8] = system: contraction depending on intracellular Ca^++; assay: Intracellular Ca++ antagonism: inhibition of phenylephrine contraction of aorta strip in Ca++-free EGTA solution; assay type: cell-based, rabbit; details: Oryctolagus cuniculus; compound 10^-6 M; phenylephrine 10^-6 M; Ca++ 0 mM, EGTA 5 mM; read-out: Inhibitory percent (contraction depending on intracellular Ca++)
Method: A spiral strip of aorta of a rabbit (2-3 mm width, about 3 cm length) was allowed to equilibrate by hanging under 2 g force in a Krebs-Henseleit solution. The solution was saturated with a mixture gas 97% O2 --3% CO2, which was warmed to 37° C. The strip was moved into another Krebs-Henseleit solution containing Ca^++ OmM and EGTA 5 mM. Five minutes later, phenylephrine (10^-6 M) was added on the solution. The resulting contraction of the strip was made as the index of the contraction depending on intracellular Ca^++.

Compound | inhibition at 10 µM [1] [%] | inhibition at 10 µM [2] [%] | inhibition at 10 µM [4] [%] | Antihypertensive effect (difference of blood pressure before and after medication) ([3]; 30 mg/Kg oral) | inhibition at 1 µM [8] [%] | also measured
COc1ccc2c(c1)SC(CCCN1CCN(c3ccccc3OC)CC1)C(=O)N2 (centres unmarked) [Example 6] | 100 | 91 | 26 |  |  | Antihypertensive effect (difference of blood pressure before and after medication) ([3]; 10 mg/Kg oral): 64 ΔmmHg
Cc1cccc2c1NC(=O)C(CCCN1CCN(c3ccc(F)cc3)CC1)S2 (centres unmarked) [Example 48, 2-[3-[4-(4-fluorophenyl)-1-piperazinyl]propyl]-5-methyl-2H-1,4-benzothiazin-3(4H)-one] |  |  |  |  |  | Time toward ischemic seizure ([5]; 1 mg/kg, control 139 ± 9 (Ex. 48), 150 ± 6 (Ex. 46)): 167 ± 8 min; Time toward ischemic seizure ([5]; 3 mg/kg, control 152 ± 14 (Ex. 48), 150 ± 6 (Ex. 46)): 214 ± 22 min; Time toward ischemic seizure ([5]; 10 mg/kg, control 132 ± 14): 275 ± 22 min; Effect on time of the beginning of the ischemic seizure (in words) ([5]; Ex. 48 at 1, 3 and 10 mg/kg, Ex. 46 at 0.3, 1 and 3 mg/kg): prolonged the time of the beginning of the ischematic seizure in a dose-dependent manner; Plasma urea nitrogen (BUN) ([6]; 3 mg/kg, control 20.3 ± 0.6 (Ex. 48), 25.1 ± 0.8 (Ex. 46)): 18.9 ± 0.6 mg/dL; Plasma urea nitrogen (BUN) ([6]; 10 mg/kg, control 22.8 ± 1.0): 16.9 ± 0.7 mg/dL; Effect on the increase in BUN (in words) ([6]; Ex. 48 at 10 mg/kg, Ex. 46 at 1 and 3 mg/kg): inhibited the increase in BUN; Incidence of cardiac arrest (CA), rats affected/rats used ([7]; 1 mg/kg): 3/10; Incidence of ventricular fibrillation (VF), rats affected/rats used ([7]; 1 mg/kg): 5/10; Incidence of ventricular tachycardia (VT), rats affected/rats used ([7]; 1 mg/kg): 7/10; Incidence of cardiac arrest (CA), rats affected/rats used ([7]; 3 mg/kg): 1/9; Incidence of ventricular fibrillation (VF), rats affected/rats used ([7]; 3 mg/kg): 3/9; Incidence of ventricular tachycardia (VT), rats affected/rats used ([7]; 3 mg/kg): 4/9; Incidence of cardiac arrest (CA), rats affected/rats used ([7]; 10 mg/kg): 0/6; Incidence of ventricular fibrillation (VF), rats affected/rats used ([7]; 10 mg/kg): 1/6; Incidence of ventricular tachycardia (VT), rats affected/rats used ([7]; 10 mg/kg): 1/6; Effect on incidences of VT, VF and CA (in words) ([7]; Ex. 48 at 1, 3 and 10 mg/kg, Ex. 46 at 0.3, 1, 3 and 10 mg/kg): inhibited the incidences of VT, VF and CA in a dose-dependent manner
COc1ccccc1N1CCN(CCC2Sc3ccccc3NC2=O)CC1 (centres unmarked) [Example 28] | 100 | 100 | 15 | 29 ΔmmHg |  | 
Cc1cccc2c1NC(=O)C(CCCN1CCN(c3ccc(Cl)cc3)CC1)S2 (centres unmarked) [Example 15] | 100 | 20 | 40 |  | 30 | 
Cc1cccc2c1NC(=O)C(CCCN1CCN(c3cccc(Cl)c3)CC1)S2 (centres unmarked) [Example 14] | 100 |  | 50 | 26 ΔmmHg | 100 | 
Cc1cccc2c1NC(=O)C(CCCN1CCN(c3ccc(F)cc3)CC1)S2 (centres unmarked) [Example 12, 2-[3-[4-(4-fluorophenyl)-1-piperazinyl]propyl]-5-methyl-2H-1,4-benzothiazin-3(4H)-one] |  | 96 | 41 |  | 100 | inhibition at 10 µM ([1]; 0.25 h): 100%; Antihypertensive effect (difference of blood pressure before and after medication) ([3]; 60 mg/Kg oral): 49 ΔmmHg
Cc1cc(C)c2c(c1)SC(CCCN1CCN(c3ccc(F)cc3)CC1)C(=O)N2 (centres unmarked) [Example 11] | 95 | 67 | 70 | 49 ΔmmHg | 97 | 
COc1ccc2c(c1)SC(CCCN1CCN(c3ccccc3)CC1)C(=O)N2 (centres unmarked) [Example 5] | 100 | 100 | 10 |  |  | Antihypertensive effect (difference of blood pressure before and after medication) ([3]; 10 mg/Kg oral): 49 ΔmmHg
Cc1cc2c(cc1C)SC(CCCN1CCN(c3ccc(F)cc3)CC1)C(=O)N2 (centres unmarked) [Example 1, 2-[3-[4-(4-fluorophenyl)-1-piperazinyl]propyl]-6,7-dimethyl-2H-1,4-benzothiazin-3(4H)-one] |  |  | 50 | 35 ΔmmHg | 66 | inhibition at 10 µM ([1]; 0.25 h): 100%
COc1ccc2c(c1)SC(CCN1CCN(c3ccccc3)CC1)C(=O)N2 (centres unmarked) [Example 29] | 96 | 73 | 15 |  |  | Antihypertensive effect (difference of blood pressure before and after medication) ([3]; 10 mg/Kg oral): 38 ΔmmHg
COc1ccccc1N1CCN(CCC2Sc3ccccc3N(C)C2=O)CC1 (centres unmarked) [Example 32] | 100 | 88 |  |  |  | Antihypertensive effect (difference of blood pressure before and after medication) ([3]; 60 mg/Kg oral): 30 ΔmmHg
Cc1cccc2c1NC(=O)C(CCCN1CCN(c3ccccc3)CC1)S2 (centres unmarked) [Example 13] | 100 | 92 | 40 |  |  | Antihypertensive effect (difference of blood pressure before and after medication) ([3]; 60 mg/Kg oral): 36 ΔmmHg
CN1C(=O)C(CCN2CCN(c3ccc(F)cc3)CC2)Sc2ccccc21 (centres unmarked) [Example 30, 2-[2-[4(4-fluorophenyl)-1-piperazinyl]ethyl]-4-methyl-2H-1,4-benzothiazin-3(4H)-one] |  | 100 | 42 | 40 ΔmmHg |  | inhibition at 10 µM ([1]; 0.25 h): 90%
COc1ccccc1N1CCN(CCCC2Sc3cc(Cl)ccc3NC2=O)CC1 (centres unmarked) [Example 9] | 100 | 44 | 40 |  |  | Antihypertensive effect (difference of blood pressure before and after medication) ([3]; 60 mg/Kg oral): 35 ΔmmHg
COc1ccccc1N1CCN(CCCC2Sc3ccccc3NC2=O)CC1 (centres unmarked) [Example 25, 2-[3-[4-(2-methoxyphenyl)-1-piperazinyl]propyl]-2H-1,4-benzothiazin-3(4H)-one] |  | 84 | 10 | 66 ΔmmHg |  | inhibition at 10 µM ([1]; 0.25 h): 100%
COc1ccccc1N1CCN(CCCC2Sc3cc(C)cc(C)c3NC2=O)CC1 (centres unmarked) [Example 22] | 100 | 15 | 62 | 39 ΔmmHg | 100 | 
O=C1Nc2ccccc2SC1CCCN1CCN(c2ccccc2)CC1 (centres unmarked) [Example 2] | 100 | 97 | 70 | 43 ΔmmHg |  | 
COc1ccccc1N1CCN(CCCC2Sc3ccc(Cl)cc3NC2=O)CC1 (centres unmarked) [Example 8] | 100 | 18 | 34 |  |  | 
